Data set [1] has as its system HEK 293T (human embryonic kidney cancer cell line). Nature of the data set: In vitro cytotoxicity assay (CellTiter-Glo, 72 hours), HEK 293T. To be noted: Homo sapiens, HEK-293T, 72 h. The data set is classed as cell-based. For orientation: Cellular ATP, detected with luciferase, serves as a proxy for viable cell number.
Data set [2] has as its system MES SA (uterine sarcoma cell line). Nature of the data set: In vitro cytotoxicity assay (CellTiter-Glo, 72 hours), MES SA. To be noted: Homo sapiens, MES-SA, 72 h. The data set is classed as cell-based.
For data set [3], the system named is MES SA, MES SA DX and HEK 293T cells. Nature of the data set: In vitro cytotoxicity assay, structure-activity discussion over the cell lines tested. To be noted: refers to Tables 2 and 3.
The test system of data set [4] is MES SA DX (MES SA cell line with marked multi-drug resistance). Description: In vitro cytotoxicity assay (CellTiter-Glo, 72 hours), MES SA DX. To be noted: Homo sapiens, MES-SA, 72 h.
Where [5] appears, read: read-out: HEK 293T, IC50 Value in nM.
The mark [6] stands for this setting: read-out: MES SA, IC50 Value in nM.
[7] abbreviates: read-out: MES SA DX, IC50 Value in nM.

As usually defined, the IC50 is the point on the concentration scale where inhibition reaches its midpoint.

Molecules are shown by their SMILES. Read-outs that look alike come from different tables or passages of the source. Bounds are passed on as bounds.

Consider `CCCCN1CCCC[C@@H]1C(=O)N[C@H](C(=O)N(C)[C@H](C[C@@H](OC(C)=O)c1nc(C(=O)N[C@H]2CC[C@H](C(=O)OC)CC2)cs1)C(C)C)C(C)C` [Tb54, Methyl trans-4-[({2-[(1R,3R)-1-acetoxy-3-{[(2S)-2-({[(2R)-1-butylpiperidin-2-yl]carbonyl}amino)-3-methylbutanoyl](methyl)amino}-4-methylpentyl]-1,3-thiazol-4-yl}carbonyl)amino]cyclohexanecarboxylate], for which the IC50 in data set [1] (setting [5]), in data set [2] (setting [6]) and in data set [4] (setting [7]) was greater than 1000 nM in each case. For the same compound, in data set [3], the “cytotoxicity potency (in words, structure-activity discussion)” value (from here on “cytotoxicity potency”) is given as “insignificant or low biological activity”.

For the compound `CCCCN1CCCC[C@@H]1C(=O)N[C@H](C(=O)N(C)[C@H](C[C@@H](OC(C)=O)c1nc(C(=O)N[C@H]2CC[C@H](C(=O)O)CC2)cs1)C(C)C)C(C)C` [Tb55, trans-4-[({2-[(1R,3R)-1-Acetoxy-3-{[(2S)-2-({[(2R)-1-butylpiperidin-2-yl]carbonyl}amino)-3-methylbutanoyl](methyl)amino}-4-methylpentyl]-1,3-thiazol-4-yl}carbonyl)amino]cyclohexanecarboxylic acid], the half-inhibitory concentration (IC50) in data set [1] (setting [5]), in data set [2] (setting [6]) and in data set [4] (setting [7]) was greater than 1000 nM in each case. Moreover, the “cytotoxicity potency” value in data set [3] was “insignificant or low biological activity”.

On to `CC[C@H](C)[C@H](NC(=O)[C@H]1CCCCN1C)C(=O)N(C)[C@H](C[C@@H](O)c1nc(C(=O)N[C@@H](Cc2ccccc2)C[C@H](C)C(=O)O)cs1)C(C)C` [Tb58, (2S,4R)-4-[({2-[(1R,3R)-1-Hydroxy-4-methyl-3-{methyl[(2S,3S)-3-methyl-2-({[(2R)-1-methylpiperidin-2-yl]carbonyl}amino)pentanoyl]amino}pentyl]-1,3-thiazol-4-yl}carbonyl)amino]-2-methyl-5-phenylpentanoic acid], for which the IC50 in data set [1] (setting [5]), in data set [2] (setting [6]) and in data set [4] (setting [7]) was greater than 1000 nM in each case. Moreover, the “cytotoxicity potency” value in data set [3] was “significant reduction in potency”.

As for `CC[C@H](C)[C@H](NC(=O)[C@H]1CCCCN1C)C(=O)N(C)[C@H](CC(=O)c1nc(C(=O)N[C@@H](Cc2ccccc2)C[C@H](C)C(=O)O)cs1)C(C)C` [Tb59, (2S,4R)-2-Methyl-4-[({2-[(3R)-4-methyl-3-{methyl[(2S,3S)-3-methyl-2-({[(2R)-1-methylpiperidin-2-yl]carbonyl}amino)pentanoyl]amino}pentanoyl]-1,3-thiazol-4-yl}carbonyl)amino]-5-phenylpentanoic acid], the IC50 in data set [1] (setting [5]), in data set [2] (setting [6]) and in data set [4] (setting [7]) was greater than 1000 nM each time. Besides, in data set [3], the “cytotoxicity potency” value is “significant reduction in potency”.

For `CC(C)[C@H](NC(=O)[C@H]1CCCCN1C)C(=O)N(C)[C@H](C[C@@H](O)c1nc(C(=O)N[C@@H](Cc2ccccc2)C[C@H](C)C(=O)O)cs1)C(C)C` [Tb60, (2S,4R)-4-[({2-[(1R,3R)-1-Hydroxy-4-methyl-3-{methyl[(2S)-3-methyl-2-({[(2R)-1-methylpiperidin-2-yl]carbonyl}amino)butanoyl]amino}pentyl]-1,3-thiazol-4-yl}carbonyl)amino]-2-methyl-5-phenylpentanoic acid], the IC50 in data set [1] (setting [5]) is 6.34 nM; in data set [2] (setting [6]), 14 nM; in data set [4] (setting [7]) it was greater than 2500 nM. In addition, the “cytotoxicity potency” value in data set [3] is given as “significant reduction in potency”.

`CC(=O)O[C@H](C[C@H](C(C)C)N(C)C(=O)[C@@H](NC(=O)[C@H]1CCCCN1C)C(C)C)c1nc(C(=O)N[C@@H](Cc2ccccc2)C[C@H](C)C(=O)O)cs1` [Tb61, (2S,4R)-4-[({2-[(1R,3R)-1-Acetoxy-4-methyl-3-{methyl[(2S)-3-methyl-2-({[(2R)-1-methylpiperidin-2-yl]carbonyl}amino)butanoyl]amino}pentyl]-1,3-thiazol-4-yl}carbonyl)amino]-2-methyl-5-phenylpentanoic acid]: the IC50 in data set [1] (setting [5]) was 5.99 nM; in data set [2] (setting [6]), 6.07 nM; in data set [4] (setting [7]) it was greater than 1000 nM. For the same compound, the “cytotoxicity potency” value in data set [3] was “exceptional potencies”.

As to `CC(C)[C@H](NC(=O)[C@H]1CCCCN1C)C(=O)N(C)[C@H](CC(=O)c1nc(C(=O)N[C@@H](Cc2ccccc2)C[C@H](C)C(=O)O)cs1)C(C)C` [Tb62, (2S,4R)-2-Methyl-4-[({2-[(3R)-4-methyl-3-{methyl[(2S)-3-methyl-2-({[(2R)-1-methylpiperidin-2-yl]-carbonyl}amino)butanoyl]amino}pentanoyl]-1,3-thiazol-4-yl}carbonyl)amino]-5-phenylpentanoic acid], the IC50 in data set [1] (setting [5]), in data set [2] (setting [6]) and in data set [4] (setting [7]) was greater than 1000 nM each time. In data set [3], the “cytotoxicity potency” value is given as “significant reduction in potency”.

`COC(=O)[C@@H](C)C[C@H](Cc1ccccc1)NC(=O)c1csc(C(=O)C[C@H](C(C)C)N(C)C(=O)[C@@H](NC(=O)[C@H]2CCCCN2C)C(C)C)n1` [Tb63, Methyl (2S,4R)-2-methyl-4-[({2-[(3R)-4-methyl-3-{methyl[(2S)-3-methyl-2-({[(2R)-1-methylpiperidin-2-yl]carbonyl}amino)butanoyl]amino}pentanoyl]-1,3-thiazol-4-yl}carbonyl)amino]-5-phenylpentanoate]: the IC50 in data set [1] (setting [5]), in data set [2] (setting [6]) and in data set [4] (setting [7]) was greater than 1000 nM in each case. Moreover, the “cytotoxicity potency” value in data set [3] is “significant reduction in potency”.

On to `COC(=O)[C@@H](C)C[C@H](Cc1ccccc1)NC(=O)c1nc([C@@H](C[C@H](C(C)C)N(C)C(=O)[C@@H](NC(=O)[C@H]2CCCCN2C)C(C)C)OC(C)=O)sc1C` [Tb66, Methyl (2S,4R)-4-[({2-[(1R,3R)-1-acetoxy-4-methyl-3-{methyl[(2S)-3-methyl-2-({[(2R)-1-methyl-piperidin-2-yl]carbonyl}amino)butanoyl]amino}pentyl]-5-methyl-1,3-thiazol-4-yl}carbonyl)amino]-2-methyl-5-phenylpentanoate], for which the IC50 in data set [1] (setting [5]) is 0.773 nM; in data set [2] (setting [6]), 1.03 nM; in data set [4] (setting [7]), greater than 1000 nM. In data set [3], the “cytotoxicity potency” value is recorded as “some loss of potency”.

For `CC(=O)O[C@H](C[C@H](C(C)C)N(C)C(=O)[C@@H](NC(=O)[C@H]1CCCCN1C)C(C)C)c1nc(C(=O)N[C@@H](Cc2ccccc2)C[C@H](C)C(=O)O)c(C)s1` [Tb67, (2S,4R)-4-[({2-[(1R,3R)-1-Acetoxy-4-methyl-3-{methyl[(2S)-3-methyl-2-({[(2R)-1-methylpiperidin-2-yl]carbonyl}amino)butanoyl]amino}pentyl]-5-methyl-1,3-thiazol-4-yl}carbonyl)amino]-2-methyl-5-phenylpentanoic acid], the half-inhibitory concentration (IC50) in data set [1] (read-out: HEK 293T, IC50) was found to be 0.144 nM; in data set [1] (setting [5]), 0.143 nM; in data set [2] (read-out: MES SA, IC50) it was 0.836 nM; in data set [2] (setting [6]), 0.836 nM; in data set [4] (read-out: MES SA DX, IC50), 71.5 nM; in data set [4] (setting [7]) it was 71.5 nM. In addition, the “cytotoxicity potency” value in data set [3] is on record as “some loss of potency”.

Take `Cc1sc(C(=O)C[C@H](C(C)C)N(C)C(=O)[C@@H](NC(=O)[C@H]2CCCCN2C)C(C)C)nc1C(=O)N[C@@H](Cc1ccccc1)C[C@H](C)C(=O)O` [Tb68, (2S,4R)-2-Methyl-4-[({5-methyl-2-[(3R)-4-methyl-3-{methyl[(2S)-3-methyl-2-({[(2R)-1-methyl-piperidin-2-yl]carbonyl}amino)butanoyl]amino}pentanoyl]-1,3-thiazol-4-yl}carbonyl)amino]-5-phenylpentanoic acid]: the IC50 in data set [1] (setting [5]), in data set [2] (setting [6]) and in data set [4] (setting [7]) was greater than 1000 nM each time. For the same compound, the “cytotoxicity potency” value in data set [3] is reported as “significant reduction in potency”.

`COC(=O)[C@@H](C)C[C@H](Cc1ccccc1)NC(=O)c1nc([C@@H](C[C@H](C(C)C)N(C)C(=O)[C@@H](NC(=O)[C@H]2CCCN2C)C(C)C)OC(C)=O)sc1C` [Tb70, Methyl (2S,4R)-4-[({2-[(1R,3R)-1-acetoxy-4-methyl-3-{methyl[(2S)-3-methyl-2-({[(2R)-1-methyl-pyrrolidin-2-yl]carbonyl}amino)butanoyl]amino}pentyl]-5-methyl-1,3-thiazol-4-yl}carbonyl)amino]-2-methyl-5-phenylpentanoate]: the half-maximal inhibitory concentration (IC50) in data set [1] (setting [5]) is 2.32 nM; in data set [2] (setting [6]), 3.11 nM; in data set [4] (setting [7]) it was greater than 1000 nM. Besides, the “cytotoxicity potency” value in data set [3] was “significant loss of potency”.

With `CC(=O)O[C@H](C[C@H](C(C)C)N(C)C(=O)[C@@H](NC(=O)[C@H]1CCCN1C)C(C)C)c1nc(C(=O)N[C@@H](Cc2ccccc2)C[C@H](C)C(=O)O)c(C)s1` [Tb71, (2S,4R)-4-[({2-[(1R,3R)-1-Acetoxy-4-methyl-3-{methyl[(2S)-3-methyl-2-({[(2R)-1-methylpyrrolidin-2-yl]carbonyl}amino)butanoyl]amino}pentyl]-5-methyl-1,3-thiazol-4-yl}carbonyl)amino]-2-methyl-5-phenylpentanoic acid], the IC50 in data set [1] (setting [5]) was 0.408 nM; in data set [2] (setting [6]), 1.42 nM; in data set [4] (setting [7]) it was greater than 1000 nM. Moreover, the “cytotoxicity potency” value in data set [3] was “significant loss of potency”.

The values are drawn from patent US11274124B2, “Tubulysin analogues as anticancer agents and payloads for antibody-drug conjugates and methods of treatment therewith” (William Marsh Rice University, priority 2017, dated 2022).
